Reference: PubChem BioAssay AID1259407 (Chemical Carcinogenesis Research Information System (CCRIS), 2018)
Active and inactive are the calls of the source. The rule behind the calls is not given here.

System: CCRIS mutagenicity, Ames/micronucleus/aberration tests
Experiment: CCRIS mutagenicity studies
[1] = Test System: AMES SALMONELLA TYPHIMURIUM, Strain/Indicator: TA98, Metabolic Activation: NONE, Method: STANDARD PLATE
[2] = Test System: AMES SALMONELLA TYPHIMURIUM, Strain/Indicator: TA100, Metabolic Activation: NONE, Method: STANDARD PLATE
[3] = Test System: AMES SALMONELLA TYPHIMURIUM, Strain/Indicator: TA98, Metabolic Activation: RAT, LIVER, S-9, AROCLOR 1254, Method: STANDARD PLATE
[4] = Test System: AMES SALMONELLA TYPHIMURIUM, Strain/Indicator: TA100, Metabolic Activation: RAT, LIVER, S-9, AROCLOR 1254, Method: STANDARD PLATE
[5] = Test System: AMES SALMONELLA TYPHIMURIUM, Strain/Indicator: TA1535, Metabolic Activation: NONE, Method: STANDARD PLATE
[6] = Test System: AMES SALMONELLA TYPHIMURIUM, Strain/Indicator: TA1535, Metabolic Activation: RAT, LIVER, S-9, AROCLOR 1254, Method: STANDARD PLATE
[7] = Test System: AMES SALMONELLA TYPHIMURIUM, Strain/Indicator: TA1537, Metabolic Activation: NONE, Method: STANDARD PLATE
[8] = Test System: AMES SALMONELLA TYPHIMURIUM, Strain/Indicator: TA1537, Metabolic Activation: RAT, LIVER, S-9, AROCLOR 1254, Method: STANDARD PLATE

## O=C1OC(O)C(C(Br)Br)=C1Cl (stereo unspecified)
[1]
  mutagenic call: active; positive
Test System: AMES SALMONELLA TYPHIMURIUM, Strain/Indicator: TA98, Metabolic Activation: RAT LIVER S-9, AROCLOR 1254, Method: STANDARD PLATE
  mutagenic call: inactive; negative
[2]
  mutagenic call: active; positive
Test System: AMES SALMONELLA TYPHIMURIUM, Strain/Indicator: TA100, Metabolic Activation: RAT LIVER S-9, AROCLOR 1254, Method: STANDARD PLATE
  mutagenic call: inactive; negative

## CC1=CC(=O)C=C(C)C1=O
Test System: AMES SALMONELLA TYPHIMURIUM, Strain/Indicator: TA98, Metabolic Activation: NONE, Method: PREINCUBATION
  mutagenic call: inactive; negative
Test System: AMES SALMONELLA TYPHIMURIUM, Strain/Indicator: TA98, Metabolic Activation: RAT, LIVER, S-9, PHENOBARBITAL AND 5,6-BENZOFLAVONE, Method: PREINCUBATION
  mutagenic call: inactive; negative
Test System: AMES SALMONELLA TYPHIMURIUM, Strain/Indicator: TA100, Metabolic Activation: NONE, Method: PREINCUBATION
  mutagenic call: inactive; negative
Test System: AMES SALMONELLA TYPHIMURIUM, Strain/Indicator: TA100, Metabolic Activation: RAT, LIVER, S-9, PHENOBARBITAL AND 5,6-BENZOFLAVONE, Method: PREINCUBATION
  mutagenic call: inactive; negative
Test System: AMES SALMONELLA TYPHIMURIUM, Strain/Indicator: TA102, Metabolic Activation: NONE, Method: PREINCUBATION
  mutagenic call: inactive; negative
Test System: AMES SALMONELLA TYPHIMURIUM, Strain/Indicator: TA102, Metabolic Activation: RAT, LIVER, S-9, PHENOBARBITAL AND 5,6-BENZOFLAVONE, Method: PREINCUBATION
  mutagenic call: inactive; negative
Test System: AMES SALMONELLA TYPHIMURIUM, Strain/Indicator: TA104, Metabolic Activation: NONE, Method: PREINCUBATION
  mutagenic call: inactive; negative
Test System: AMES SALMONELLA TYPHIMURIUM, Strain/Indicator: TA104, Metabolic Activation: RAT, LIVER, S-9, PHENOBARBITAL AND 5,6-BENZOFLAVONE, Method: PREINCUBATION
  mutagenic call: inactive; negative
Test System: AMES SALMONELLA TYPHIMURIUM, Strain/Indicator: TA2637, Metabolic Activation: NONE, Method: PREINCUBATION
  mutagenic call: active; positive
Test System: AMES SALMONELLA TYPHIMURIUM, Strain/Indicator: TA2637, Metabolic Activation: RAT, LIVER, S-9, PHENOBARBITAL AND 5,6-BENZOFLAVONE, Method: PREINCUBATION
  mutagenic call: inactive; negative

## OCc1cc2ccc3cccnc3c2[nH]1
[1]
  mutagenic call: inactive; negative
Test System: E. COLI, Strain/Indicator: WP2 TM9, Metabolic Activation: NONE, Method: STANDARD PLATE
  mutagenic call: inactive; negative

## CN1CCN=C(c2ccccc2)c2cc(Cl)ccc21
[1]
  mutagenic call: inactive; negative
[3]
  mutagenic call: inactive; negative
[2]
  mutagenic call: inactive; negative
[4]
  mutagenic call: inactive; negative
[5]
  mutagenic call: inactive; negative
[6]
  mutagenic call: inactive; negative
[7]
  mutagenic call: inactive; negative
[8]
  mutagenic call: inactive; negative

## CNc1ccc2nc3ccc(=[N+](C)C)cc-3sc2c1
Test System: Ames Salmonella typhimurium, Strain/Indicator: TA98, Metabolic Activation: None, Method: Preincubation
  mutagenic call: active; positive
Test System: Ames Salmonella typhimurium, Strain/Indicator: TA98, Metabolic Activation: Rat, Liver, S-9, Aroclor 1254 (10%), Method: Preincubation
  mutagenic call: active; positive
Test System: Ames Salmonella typhimurium, Strain/Indicator: TA100, Metabolic Activation: None, Method: Preincubation
  mutagenic call: active; positive
Test System: Ames Salmonella typhimurium, Strain/Indicator: TA100, Metabolic Activation: Rat, Liver, S-9, Aroclor 1254 (10%), Method: Preincubation
  mutagenic call: active; positive
Test System: E. coli, Strain/Indicator: WPM uvrA/pKM101, Metabolic Activation: None, Method: Preincubation
  mutagenic call: active; positive
Test System: E. coli, Strain/Indicator: WPM uvrA/pKM101, Metabolic Activation: Rat, Liver, S-9, Aroclor 1254 (10%), Method: Preincubation
  mutagenic call: active; positive

## c1scc2c1-c1cscc1C1OC21 (stereo unspecified)
[1]
  mutagenic call: active; positive
[2]
  mutagenic call: active; positive

## C=C1/C(=C\C=C2/CCC[C@]3(C)[C@@H]([C@H](C)CCCC(C)(C)O)CC[C@@H]23)C[C@@H](O)C[C@@H]1O
End Point: IN VIVO CHROMOSOMAL ABERRATIONS, Test System: BONE MARROW CELLS, Species: RAT, Strain/Sex: WISTAR, Route: ORAL
  mutagenic call: inactive; negative

## CCS(=O)(=O)n1ncc(Cl)c(Cl)c1=O
[1]
  mutagenic call: inactive; negative
[3]
  mutagenic call: inactive; negative
[2]
  mutagenic call: active; positive
[4]
  mutagenic call: active; positive
[5]
  mutagenic call: inactive; negative
[6]
  mutagenic call: inactive; negative
[7]
  mutagenic call: inactive; negative
[8]
  mutagenic call: inactive; negative
